Publication PMC11892125 (BMC Chemistry, 2025)

Biological target: b-CA-II (bovine carbonic anhydrase II) (Bos taurus, UniProt P00921)
Experiment: p-nitrophenyl acetate esterase assay, bovine enzyme, absorbance at […] nm
Type: biochemical

Sequence of b-CA-II (bovine carbonic anhydrase II) (P00921 2-260): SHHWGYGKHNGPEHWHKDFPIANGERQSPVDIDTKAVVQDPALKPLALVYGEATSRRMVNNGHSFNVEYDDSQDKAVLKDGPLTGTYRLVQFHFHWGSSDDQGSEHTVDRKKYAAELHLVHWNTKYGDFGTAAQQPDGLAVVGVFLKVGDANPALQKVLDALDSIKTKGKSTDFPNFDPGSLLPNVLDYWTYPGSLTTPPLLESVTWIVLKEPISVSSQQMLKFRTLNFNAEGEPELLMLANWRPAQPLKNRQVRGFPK

Work on `CCCCCCCC1(O)CS/C(=N\C(=O)c2ccc(Br)cc2)N1c1ccccc1-c1ccccc1` (stereo not shown) [compound 5, (Z)-N-(3-([1,1'-biphenyl]-2-yl)-4-heptyl-4-hydroxythiazolidin-2-ylidene)-4-bromobenzamide] yielded an IC50 of 147 ± 30 nM.
